Reference: BindingDB's records for doi:10.1016/j.bmcl.2012.12.028 (Pfizer, 2013)

Target: T1, P-selectin (Homo sapiens, UniProt P16109)
T1 sequence (P16109 whole entry): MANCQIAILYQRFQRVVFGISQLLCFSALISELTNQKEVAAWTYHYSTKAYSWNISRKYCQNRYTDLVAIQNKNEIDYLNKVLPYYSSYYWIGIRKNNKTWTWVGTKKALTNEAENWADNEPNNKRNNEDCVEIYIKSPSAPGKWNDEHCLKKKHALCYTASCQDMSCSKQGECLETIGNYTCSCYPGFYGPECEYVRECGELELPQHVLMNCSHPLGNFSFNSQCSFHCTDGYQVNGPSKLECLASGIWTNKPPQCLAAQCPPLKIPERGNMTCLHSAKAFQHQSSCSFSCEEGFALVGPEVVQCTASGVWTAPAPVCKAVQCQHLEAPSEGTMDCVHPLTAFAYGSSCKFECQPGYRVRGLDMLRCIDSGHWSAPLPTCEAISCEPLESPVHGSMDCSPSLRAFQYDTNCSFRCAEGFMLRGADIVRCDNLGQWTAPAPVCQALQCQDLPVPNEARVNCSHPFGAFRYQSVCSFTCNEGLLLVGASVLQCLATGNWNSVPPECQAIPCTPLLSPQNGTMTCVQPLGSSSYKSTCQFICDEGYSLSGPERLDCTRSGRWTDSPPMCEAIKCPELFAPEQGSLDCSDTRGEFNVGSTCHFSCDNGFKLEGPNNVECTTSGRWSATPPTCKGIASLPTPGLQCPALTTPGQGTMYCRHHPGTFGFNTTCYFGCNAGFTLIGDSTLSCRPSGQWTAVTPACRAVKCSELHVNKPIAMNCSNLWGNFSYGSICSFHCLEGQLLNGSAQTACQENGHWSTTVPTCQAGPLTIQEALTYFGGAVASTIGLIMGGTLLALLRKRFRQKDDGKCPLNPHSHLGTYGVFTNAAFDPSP
Assay: Inhibition of P-selectin aggregation in platelet surface (unknown origin)

SMILES	IC50 [nM]
O=C(NCCCN1CCOC1=O)c1cnc(NCc2cc(Cl)ccc2Cl)nc1NC1CCCC1	7400
O=C(NCCCN1CCCC1=O)c1cnc(NCc2cc(Cl)ccc2Cl)nc1NC1CCCC1	3100
COc1ccccc1CNc1ncc(C(=O)NCCCN2CCCC2=O)c(NC2CCCC2)n1	17000
COc1ccccc1CNc1ncc(C(=O)NC2CCN(C)CC2)c(NC2CCCC2)n1	1500
Cc1cc(-c2cnc(Nc3cc(Cl)cc(Cl)c3)nc2NC2CCC(N(C)C)CC2)on1 (stereo not given)	1000
CN1CCC(NC(=O)c2cnc(Nc3cc(Cl)cc(Cl)c3)nc2N[C@@H]2COC[C@H]2O)CC1	2200
CN1CCC(NC(=O)c2cnc(Nc3cc(Cl)cc(Cl)c3)nc2NC2CCC(N(C)C)CC2)CC1 (stereo not given)	400
CN1CCC(NC(=O)c2cnc(NCc3cc(Cl)ccc3Cl)nc2NC2CCCC2)CC1	1200
O[C@@H]1COC[C@H]1Nc1nc(Nc2cc(Cl)cc(Cl)c2)ncc1Br	3900
O[C@@H]1COC[C@H]1Nc1nc(Nc2cc(Cl)cc(Cl)c2)ncc1-c1ccc(F)cc1	> 80000
O[C@@H]1COC[C@H]1Nc1nc(Nc2cc(Cl)cc(Cl)c2)ncc1-c1cccnc1	3000
Cc1cc(-c2cnc(Nc3cc(Cl)cc(Cl)c3)nc2NC2CCNCC2)on1	1600
CC[C@@H](CO)Nc1nc(Nc2cc(Cl)cc(Cl)c2)ncc1C(=O)NC1CCN(C)CC1	580
CN1CCC(NC(=O)c2cnc(Nc3cc(Cl)cc(Cl)c3)nc2N[C@H]2CCCCNC2=O)CC1	430
CN1CCC(NC(=O)c2cnc(Nc3cc(Cl)cc(Cl)c3)nc2NC2CCOCC2)CC1	1200
CN1CCC(NC(=O)c2cnc(NCc3cc(Cl)ccc3Cl)nc2NC2CCC(N(C)C)CC2)CC1 (stereo not given)	1100
CN1CCC(NC(=O)c2cnc(NCc3cc(Cl)ccc3Cl)nc2NC2CCNCC2)CC1	> 80000
COc1ccccc1CNc1ncc(C(=O)NCCCCN(C)C)c(NC2CCCC2)n1	7100
COc1ccccc1CNc1ncc(C(=O)NCCNC(C)=O)c(NC2CCCC2)n1	6600
COc1ccccc1CNc1ncc(C(=O)NCCCO)c(NC2CCCC2)n1	10000
